# Patent publication US4424218A, “Novel 3 α-amino steroids” (Roussel Uclaf, priority 1979, dated 1984)
# Counter-ions that a name gives are not always drawn. Like-named read-outs stand apart in the source and are kept apart here.
# Tests used:
# anaphylactic shock = assay: Adjuvant for anaphylactic shock (beef seric albumin); assay type: in vivo, mice; conditions: intraplantary, admixed with antigen; antigen intravenously 8 days later
# From the text: C. Adjuvant for anaphylactic shock
# The administration to animals of a compound capable of stimulating the activity of immunitary systems leads to an increase in response to administration of antigen to which the animal is sensitive. Male mice weighing between 30 to 35 g were sensitized by intraplantary administration of beef seric albumin. 8 days later, the mice received intraveinously an antigen and under the minimum sensibilization conditions, the control animals were not in mortal shock at the time of the last administration.
# The active dose which provoked a mortality equal to or greater than 50% of the animals was determined and the results are reported in Table I.
# [1] = test system: rosettes to sheep red corpuscles; assay: Test of Rosettes to sheep red corpuscles; assay type: in vivo, rats; conditions: Rattus norvegicus, po, 24 h, read-out: immunostimulating dose which multiplied by 2 the percentage of rosettes observed in the control animals
# From the text: D. Test of Rosettes to sheep red corpuscles
# The administration to animals of a product capable of stimulating the immunitary systems leads to an increase of their capacity of reaction to the injection of an immunogenic product. 3 month old male rats were sensibilized by intraperitoneal administration of sheep erythrocytoes on day 0 and 7 days later, the spleen was removed and splenocytes were placed in contact with sheep erythrocytes. The percentage of leucocytes around the erythrocytes in the form of rosettes was determined. The test compounds were orally administered daily from day-1 to day 1 and immunostimulating dose is the dose of product which multiplied by 2 the percentage of rosettes observed in the control animals and the results are reported in Table II.
# mice = assay: Acute toxicity; assay type: in vivo; conditions: orally
# secondary arthritis = assay: Adjuvant for chronic arthritis (Freund type adjuvant); assay type: in vivo, rat; conditions: for ED50: Rattus norvegicus, read-out: active dose which diminished the secondary inflammation by at least 50%
# Method: B. Adjuvant for chronic arthritis
# The injection of a Freund type adjuvant (Mycobacterium butyricum at 6 mg/ml in Bayol 55) into the posterium paw of a rat provokes a primary inflammatory lesion and then after a latency period of 13 to 15 days, initiation of secondary inflammation affecting the other non-injected rear paw as well as the front paws, the ears and the tail.
# Male rats aged 42 to 50 days received an intraplantary injection of 0.10 ml of Freund adjuvant and treatment started the day of the adjuvant injection and continued until the animals were killed on the 17th day. […] In this test, the effect on secondary inflammations was essentially observed, it was determined by the arthritis of the non-injected rear paw, arthritis of the front paws and the inflammation of the ears and tail.
# IgE production = assay: Potentialization of IgE production (passive cutaneous anaphylaxia test); assay type: in vivo, mice; conditions: for minimal effective dose: Mus musculus, sc, read-out: active dose, potentialization of IgE production
# Method: A. Potentialization of IgE production
# Female mice weighing between 28 to 30 g were immunized by subcutaneous administration of an ovalbumin-alumina mixture on days 0 and 14 and serum was taken on the 21st day for dosage of IgE antibodies formed. The respective quantities of antigen (ovalbumin) and adjuvant (alumina) injected was selected so as to keep production of antibodies at a minimum. The test compounds were administered subcutaneously 3 hours before the first immunization.
# The research of the larger dilution of serum which gives a spot of a 11 to 13 mm diameter for each animal is made. An adequate dilution of serum was injected intradermally with a volume of 0.1 ml in male rats weighing about 250 g in the region of the back. 48 hours later, the animals received veinously 0.5 ml of a solution of 0.5% of ovalbumin and 1% of Evans blue in an isotonic solution of sodium chloride. 30 minutes after this injection, the animals were killed by exsanguination and the diameter of the blue spot on turned over skin is measured.
# [2] = orally, daily from day -1 to day 1
SMILES,active dose which provoked a mortality equal to or greater than 50% of the animals (anaphylactic shock) [mg per animal],"ED (2-fold rosettes) [1, 2] [mg/kg]","DL0 (lethal dose LD0, maximum dose which did not cause any mortality after 8 days) (mice) [mg/kg]",other results
"C[C@H](N)C(=O)N[C@@H]1CC[C@@]2(C)[C@@H](CC[C@@H]3[C@@H]2CC[C@]2(C)[C@@H]([C@H](C)O)CC[C@@H]32)C1 [Example 2, (2S) 2-amino-N-[(20S)-5α-pregnan-20-ol-3α-yl]-propanamide]",0.5,1,200,–
C[C@H](O)[C@H]1CC[C@H]2[C@@H]3CC[C@H]4C[C@H](NC(=O)[C@@H](N)CCC(=O)O)CC[C@]4(C)[C@H]3CC[C@]12C [Example 3],≤ 1,–,≥ 400,–
C[C@H](O)[C@H]1CC[C@H]2[C@@H]3CC[C@H]4C[C@H](NC(=O)[C@@H](N)CO)CC[C@]4(C)[C@H]3CC[C@]12C [Example 4],–,–,≥ 400,–
C[C@H](O)[C@H]1CC[C@H]2[C@@H]3CC[C@H]4C[C@H](NC(=O)[C@@H](N)Cc5ccccc5)CC[C@]4(C)[C@H]3CC[C@]12C [Example 5],5,–,≥ 400,–
"C[C@H](O)[C@H]1CC[C@H]2[C@@H]3CC[C@H]4C[C@H](NC(=O)[C@@H](N)Cc5c[nH]c6ccccc56)CC[C@]4(C)[C@H]3CC[C@]12C [Example 6, (2S) 2-amino-N-[(20S) 5α-pregnane-20-ol-3α-yl]-1H-indol-3-propanamide]",5,2,≥ 1000,–
C[C@H](O)[C@H]1CC[C@H]2[C@@H]3CC[C@H]4C[C@H](NC(=O)[C@@H]5CCCN5)CC[C@]4(C)[C@H]3CC[C@]12C [Example 7],2,> 5,≥ 800,–
C[C@H](O)[C@H]1CC[C@H]2[C@@H]3CC[C@H]4C[C@H](NC(=O)CNC(=O)CN)CC[C@]4(C)[C@H]3CC[C@]12C [Example 8],1,–,≥ 400,–
"C[C@H](O)[C@H]1CC[C@H]2[C@@H]3CC[C@H]4C[C@H](NC(=O)c5cccnc5)CC[C@]4(C)[C@H]3CC[C@]12C [Example 9, N-[(20S)5α-pregnan-20-ol-3α-yl]-3-pyridinecarboxamide]",5,5,–,–
"C[C@H](O)[C@@]1(O)CC[C@H]2[C@@H]3CC[C@H]4C[C@H](NC(=O)CN)CC[C@]4(C)[C@H]3CC[C@@]21C [Example 10, 2-amino-N-[(20S) 5α-pregnane-17α,20-diol-3α-yl]-acetamide hydrochloride]",1,–,≥ 600,–
"C[C@H](O)[C@H]1CC[C@H]2[C@@H]3CC[C@H]4C[C@H](NC(=O)CN)CC[C@@H]4[C@H]3CC[C@]12C [Example 11, 2-amino-N-[(20S) 19-nor-5α-pregnane-20-ol-3α-yl]-acetamide hydrochloride]",0.5,5,≥ 400,–
"CC(=O)[C@@]1(O)CC[C@H]2[C@@H]3CC[C@H]4C[C@H](NC(=O)CN)CC[C@]4(C)[C@H]3CC[C@@]21C [Example 12, 2-amino-N-[(5α-pregnane-17α-ol-20-one-3α-yl]-acetamide hydrochloride]",–,5,–,–
"CCOC(=O)N[C@@H]1CC[C@@]2(C)[C@@H](CC[C@@H]3[C@@H]2CC[C@]2(C)[C@@H]([C@H](C)O)CC[C@@H]32)C1 [Example 14, Ethyl N-[(20S)5α-pregnane-20-ol-3α-yl]-carbamate]",5,–,≥ 400,–
"C[C@H](O)[C@H]1CC[C@H]2[C@@H]3CC[C@H]4C[C@H](N(C)C(=O)CN)CC[C@]4(C)[C@H]3CC[C@]12C.Cl [Example 15, 2-amino-N-[(20S) 5α-pregnane-20-ol-3α-yl]-N-methyl-acetamide hydrochloride]",0.5,–,≥ 200,ED (2-fold rosettes) [1]: 10 mg/kg
"c1ccc([C@H]2CN3CCSC3=N2)cc1 [Levamisole, reference compound]",–,–,–,"ED50 (secondary arthritis; po, orally, treatment from day of adjuvant injection to 17th day): 50 mg/kg; minimal effective dose (IgE production; subcutaneous, 3 hours before first immunization, ovalbumin-alumina): 20 mg/kg"
"C[C@H](O)[C@H]1CC[C@H]2[C@@H]3CC[C@H]4C[C@H](NC(=O)CN)CC[C@]4(C)[C@H]3CC[C@]12C.Cl [Product A, (20S) 3α-[(aminoacetyl)-amino]-5α-pregnane-20-ol hydrochloride]",–,–,–,"ED50 (secondary arthritis; sc): 1 mg/kg; activity against secondary phenomena of arthritis of adjuvant (in words) (secondary arthritis; subcutaneously, compared with Levamisole): very active against secondary phenomena of arthritis of adjuvant; minimal effective dose (IgE production): 0.5 mg/kg; immunostimulating activity in IgE test (in words) (IgE production; subcutaneous, compared with Levamisole): greater immunostimulating activity than Levamisole"
